Common to all, as to type: in vivo, rat
Experiment [1] relates to blood LH levels. Kind of experiment: Blood LH level time course after intraventricular administration in freely moving Wistar rats. The following applies: for blood LH level compared with the control group: third ventricle, 0-60 min. The method, then: A guide cannula was implanted in adult male Wistar rats treated in the same manner as described in Example 1. The rats were allowed about one week for recovery from the surgery. Then, they received another surgery so that blood samples can be taken from them moving freely. Briefly, the guide cannula-implanted rat was anesthetized by intraperitoneal administration of […] pentobarbital and fixed on an anatomical pad in face-up position. Then, the left jugular vein was exposed. A polyethylene tube SP35 (inside dia. 0.5 mm, outside dia. 0.9 mm; Natsume Seisakusho) was cut to give an about 30 cm length, filled with 200 U/ml heparin-containing physiological saline, inserted into the jugular vein about 4.5 cm, and fixed. The other end of the tube was passed subcutaneously through dorsal skin and exposed from the neck (dorsal).
After one night from the surgery, 300 μl of blood was collected from each rat using a 1 ml injection syringe for tuberculin and a 25-gauge injection needle (both Terumo Corp.) prior to the administration of rat GALP (a peptide consisting of the amino acid sequence as shown in SEQ ID NO: 33). In order to prevent blood coagulation, 10 μl of 300 KIU/ml aprotinin solution containing 3 mg/ml EDTA was added in advance into the injection syringe. The cap nut and the dummy cannula installed on the rat skull were removed. Instead of them, a stainless microinjection cannula (inside dia. 0.17 mm, outside dia. 0.35 mm; Eicom) connected with a Teflon tube (length 50 cm, inside dia. 0.1 mm, outside dia. 0.35 mm; Eicom) was inserted into the guide cannula. The length of the microinjection cannula was adjusted in advance so that 1 mm of it tip was exposed from the guide cannula. One end of the Teflon tube was connected with a microsyringe pump. […] Five minutes after the completion of the injection, the microinjection cannula was removed, and a dummy cannula was fixed again with a cap nut. […] The LH levels in the plasma were measured by radioimmunoassay (Amersham).

In experiment [2] the test system is pituitary hormone levels in plasma. Kind of experiment: Pituitary hormone levels in plasma after GALP administration into the third ventricle. The following applies: Wistar rats. On the procedure:
Effects of GALP administration into the third ventricle on pituitary hormone levels in plasma were examined. Briefly, adult male Wistar rats (body weight: 350-380 g at the time of surgery) were anesthetized by intraperitoneal administration of 50 mg/kg pentobarbital and fixed in a stereotaxic apparatus for rat brain. The incisor bar was set 3.3 mm below the interaural line. The skull surface was exposed, and a hole was drilled in the skull with a dental drill in order to implant a guide cannula AG-8 (inside dia. 0.4 mm, outside dia. 0.5 mm; Eicom) in the third ventricle. Further, four anchor screws were embedded around the hole. A stainless guide cannula (AG-12) was inserted so that its tip was located above the third ventricle. The stereotaxic coordinates were set as follows according to the atlas of Paxinos and Watson (1998): AP: −0.8 mm, L: 0.0 mm, […] from bregma. The guide cannula was fixed onto the skull with instant glue, dental cement and the anchor screws. […]
The rats were allowed about one week for recovery after the implantation of the guide cannula. […] Growth hormone (GH), thyroid-stimulating hormone (TSH), follicle-stimulating hormone (FSH), LH, prolactin and adorenocorticotropic hormone (ACTH) contained in the plasma were quantified by radioimmunoassay (GH, TSH, FSH, LH and prolactin; Amersham) (ACTH; Mitsubishi Kagaku).

In experiment [3] the test system is blood LH levels. Description: Blood LH levels after intraventricular GALP in Zucker fatty and Zucker lean rats. The following applies: 1 nmol third ventricle. On the procedure: Effects of GALP administration into the third ventricle on LH levels in plasma were examined using Zucker obese rats having an abnormality of Leptin receptor. Briefly, adult male Zucker obese rats (body weights at the time of surgery: fatty: 410-430 g; lean: 290-310 g) were anesthetized by intraperitoneal administration of 50 mg/kg pentobarbital and fixed in a stereotaxic apparatus for rat brain. The incisor bar was set 3.3 mm below the interaural line. The skull surface was exposed, and a hole was drilled in the skull with a dental drill in order to implant a guide cannula AG-8 (inside dia. 0.4 mm, outside dia. 0.5 mm; Eicom) in the third ventricle. Further, four anchor screws were embedded around the hole. A stainless guide cannula (AG-12) was inserted so that its tip was located above the third ventricle. The stereotaxic coordinates were set as follows according to the atlas of Paxinos and Watson (1998): for Zucker fatty, AP: −1.00 mm, L: 0.0 mm, H: 5.6 mm from bregma, and for Zucker lean, AP: −0.9 mm, L: 0.0 mm, H: 5.4 mm from bregma. The guide cannula was fixed onto the skull with instant glue, dental cement and the anchor screws. […]
The rats were allowed about one week for recovery after the implantation of the guide cannula. […] The LH levels in the plasma were measured by radioimmunoassay (Amersham).

Turning to “rat GALP (APAHRGRGGWTLNSAGYLLGPVLHLSSKANQGRKTDSALEILDLWKAIDGLPYSRSPRMT; Rat)”, the “blood LH level compared with the control group” value in the experiment on blood LH levels [1] (1 nmol administration group) is listed as “tendency to rise”; in the experiment with blood LH levels [1] (5 nmol administration group) it was “significant rise”. Moreover, the “time of peak of blood LH rise after the administration” value in the experiment on blood LH levels [1] (5 nmol administration group) is listed as 30 min. The “blood LH level compared to the control group” value in experiment [2] (0.5 nmol and 5 nmol intraventricular, 10 min after injection) is given as “significant increase”. Moreover, the “other pituitary hormone levels in blood (FSH, GH, TSH, ACTH, prolactin)” value in experiment [2] (intraventricular, 5 nmol/rat) is recorded as “no other pituitary hormone levels were changed”. Besides, the “blood LH levels compared with the control group” value in the experiment with blood LH levels [3] (Zucker fatty rats, at 10, 20 and 30 min) is “significant rise”; in the experiment with blood LH levels [3] (Zucker lean rats), “no significant rise”.

(Values after patent publication US20040077531A1, “Use of galanin-like peptide” (priority 2001, published 2004).)
